Measurements published in US9353093B2, “Indole-1-carboxamides as kinase inhibitors” (Allergan, Inc., priority 2014, dated 2016).
Like-named read-outs stand apart in the source and are kept apart here.

Assays:
[1] = biological target: purified cytoplasmic domain PDGFR-b protein (PDGFRβ) (Homo sapiens (Human), UniProt P09619); test: PDGFRβ Kinase Assay; format: biochemical; conditions: 36 μM ATP, poly-Glu-Tyr (4:1) substrate, 60 minute incubation at 30° C.; read-out: Enzyme PDGFβ IC50
Experimental: Biochemical PDGFRβ kinase assays were performed in 96 well microtiter plates that were coated overnight with 75 μg of poly-Glu-Tyr (4:1) in 10 mM Phosphate Buffered Saline (PBS), pH 7.4. […] Reactions were carried out in 100 μL reaction volumes containing 36 μM ATP in kinase buffer (50 mM Hepes buffer pH 7.4, 20 mM MgCl2, 0.1 mM MnCl2 and 0.2 mM Na3VO4). […] Reactions were initiated by the addition 20 ul per well of kinase buffer containing 200-300 ng purified cytoplasmic domain PDGFR-b protein (Millipore). Following a 60 minute incubation at 30° C., the reactions were washed 2 mls per well PBS-T. 100 μl of a monoclonal anti-phosphotyrosine antibody-peroxidase conjugate diluted 1:10,000 in PBS-T was added to the wells for 30 minutes. Following a 2 mls per well wash with PBS-Tween-20, 100 μl of O-Phenylenediamine Dihydrochloride in phosphate-citrate buffer, containing urea hydrogen peroxide, was added to the wells for 7-10 minutes as a colorimetric substrate for the peroxidase. […] IC50 values for compound inhibition were calculated directly from graphs of optical density (arbitrary units) versus compound concentration following subtraction of blank values.

[2] = biological target: purified cytoplasmic domain KDR protein (VEGFR2) (Homo sapiens (Human), UniProt P35968); test: VEGFR2 Kinase Assay; format: biochemical; conditions: 2.7 μM ATP, poly-Glu-Tyr (4:1) substrate, 15 minute incubation at 30° C.; read-out: Enzyme VEGFR2 IC50
Sequence of purified cytoplasmic domain KDR protein (VEGFR2) (P35968 786-1356): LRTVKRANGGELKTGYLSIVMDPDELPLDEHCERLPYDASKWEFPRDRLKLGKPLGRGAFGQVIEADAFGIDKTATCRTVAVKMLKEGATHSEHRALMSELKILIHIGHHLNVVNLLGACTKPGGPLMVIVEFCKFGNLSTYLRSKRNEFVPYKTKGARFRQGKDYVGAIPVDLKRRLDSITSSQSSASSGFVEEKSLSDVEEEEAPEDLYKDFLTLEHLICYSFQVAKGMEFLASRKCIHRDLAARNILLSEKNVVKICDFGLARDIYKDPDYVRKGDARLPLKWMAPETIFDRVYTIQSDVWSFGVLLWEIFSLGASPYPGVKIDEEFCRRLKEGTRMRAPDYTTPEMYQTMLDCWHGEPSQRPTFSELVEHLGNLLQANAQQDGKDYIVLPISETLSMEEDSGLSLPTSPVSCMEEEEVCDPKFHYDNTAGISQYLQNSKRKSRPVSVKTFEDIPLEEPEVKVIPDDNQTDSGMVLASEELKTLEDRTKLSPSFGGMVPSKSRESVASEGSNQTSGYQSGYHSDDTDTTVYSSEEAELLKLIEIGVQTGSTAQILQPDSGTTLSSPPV
Experimental: VEGFR2 Kinase Assay Biochemical KDR kinase assays were performed in 96 well microtiter plates that were coated overnight with 75 μg/well of poly-Glu-[…]:1) in 10 mM Phosphate Buffered Saline (PBS), pH 7.4. […] Reactions were carried out in 100 μL reaction volumes containing 2.7 μM ATP in kinase buffer (50 mM Hepes buffer pH 7.4, 20 mM MgCl2, 0.1 mM MnCl2 and 0.2 mM Na3VO4). […] Reactions were initiated by the addition 20 ul per well of kinase buffer containing 200-300 ng purified cytoplasmic domain KDR protein (BPS Bioscience, San Diego, Calif.). Following a 15 minute incubation at 30° C., the reactions were washed 2 mls per well PBS-T. 100 μl of a monoclonal anti-phosphotyrosine antibody-peroxidase conjugate diluted 1:10,000 in PBS-T was added to the wells for 30 minutes. Following a 2 mls per well wash with PBS-Tween-20, 100 μl of O-Phenylenediamine Dihydrochloride in phosphate-citrate buffer, containing urea hydrogen peroxide, was added to the wells for 7-10 minutes as a colorimetric substrate for the peroxidase. […] IC50 values for compound inhibition were calculated directly from graphs of optical density (arbitrary units) versus compound concentration following subtraction of blank values.

[3] = tested on: VEGFR2 in HUVEC (human umbilical vein endothelial cells); test: VEGFR2 Cellular Assay (FLIPR, VEGF induced increases in intracellular calcium); format: cell-based
Experimental: VEGFR2 Cellular Assay Automated FLIPR (Fluorometric Imaging Plate Reader) technology was used to screen for inhibitors of VEGF induced increases in intracellular calcium levels in fluorescent dye loaded endothelial cells. HUVEC (human umbilical vein endothelial cells) (Clonetics) were seeded in 384-well fibronectin coated black-walled plates overnight @37° C./5% CO2. Cells were loaded with calcium indicator Fluo-4 for 45 minutes at 37° C. Cells were washed 2 times (EIx405, Biotek Instruments) to remove extracellular dye. For screening, cells were pre-incubated with test agents for 30 minutes, at a single concentration (10 uM) or at concentrations ranging from 0.0001 to 10.0 uM followed by VEGF165 stimulation (10 ng/mL). Changes in fluorescence at 516 nm were measured simultaneously in all 384 wells using a cooled CCD camera. Data were generated by determining max-min fluorescence levels for unstimulated, stimulated, and drug treated samples. IC50 values for test compounds were calculated from % inhibition of VEGF stimulated responses in the absence of inhibitor.

[4] = read-out: Receptor VEGFR2 IC50 (nM)

Sequence of purified cytoplasmic domain PDGFR-b protein (PDGFRβ) (P09619 554-1106): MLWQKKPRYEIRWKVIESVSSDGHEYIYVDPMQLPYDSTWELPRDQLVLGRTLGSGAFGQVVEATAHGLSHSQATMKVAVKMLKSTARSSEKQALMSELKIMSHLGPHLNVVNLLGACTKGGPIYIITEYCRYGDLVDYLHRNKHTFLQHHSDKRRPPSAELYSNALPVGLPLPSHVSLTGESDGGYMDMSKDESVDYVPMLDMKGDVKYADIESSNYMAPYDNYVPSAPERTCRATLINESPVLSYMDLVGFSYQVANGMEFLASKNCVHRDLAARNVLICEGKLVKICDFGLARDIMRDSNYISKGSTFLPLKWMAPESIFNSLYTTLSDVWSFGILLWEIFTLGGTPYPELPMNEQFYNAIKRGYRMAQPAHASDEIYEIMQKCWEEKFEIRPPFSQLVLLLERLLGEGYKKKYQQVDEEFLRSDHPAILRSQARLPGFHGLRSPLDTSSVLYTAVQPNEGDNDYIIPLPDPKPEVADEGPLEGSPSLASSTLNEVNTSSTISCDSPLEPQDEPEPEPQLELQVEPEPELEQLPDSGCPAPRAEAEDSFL

Row | IC50 [1] [nM] | IC50 [2] [nM] | SMILES | IC50 [3, 4] [nM] | IC50 ([3]; VEGF165 stimulation (10 ng/mL), 30 minutes pre-incubation, Fluo-4 calcium, read-out: Receptor VEGFR2 IC50) [nM]
1 | 3310 | 254 | NC(=O)n1c(-c2cccc(NC(=O)Nc3cccc(C(F)(F)F)c3)c2)cc2ccccc21 [Example 21, 2-{3-[({[3-(trifluoromethyl)phenyl]amino}carbonyl)amino]phenyl}-1H-indole-1-carboxamide] | – | –
2 | 4610 | 94 | Cc1ccc(F)c(NC(=O)Nc2csc(-c3cc4ccccc4n3C(N)=O)c2)c1 [Example 29, 2-[4-({[(2-fluoro-5-methylphenyl)amino]carbonyl}amino)-2-thienyl]-1H-indole-1-carboxamide] | – | –
3 | – | 1170 | Cc1cccc(C(=O)Nc2cccc(-c3cc4ccccc4n3C(N)=O)c2)c1 [Example 24, 2-{3-[(3-methylbenzoyl)amino]phenyl}-1H-indole-1-carboxamide] | – | –
4 | 3030 | 334 | Cc1ccc(F)c(NC(=O)Nc2cccc(-c3cc4ccccc4n3C(N)=O)c2)c1 [Example 23, 2-[3-({[(2-fluoro-5-methylphenyl)amino]carbonyl}amino)phenyl]-1H-indole-1-carboxamide] | – | –
5 | > 10000 | 249 | NC(=O)n1c(-c2cccc(NC(=O)Nc3ccc(F)c(Cl)c3)c2)cc2ccccc21 [Example 22, 2-[3-({[(3-chloro-4-fluorophenyl)amino]carbonyl}amino)phenyl]-1H-indole-1-carboxamide] | – | –
6 | 55 | – | NC(=O)n1c(-c2ccc(NC(=O)Nc3cc(C(F)(F)F)ccc3F)cc2)cc2ccccc21 [Example 9, 2-{4-[({[2-fluoro-5-(trifluoromethyl)phenyl]amino}carbonyl)amino]phenyl}-1H-indole-1-carboxamide] | – | –
7 | – | 276 | Cc1cccc(NC(=O)Nc2cccc(-c3cc4ccccc4n3C(N)=O)c2)c1 [Example 19, 2-[3-({[(3-methylphenyl)amino]carbonyl}amino)phenyl]-1H-indole-1-carboxamide] | – | –
8 | – | 240 | CCc1cccc(NC(=O)Nc2cccc(-c3cc4ccccc4n3C(N)=O)c2)c1 [Example 20, 2-[3-({[(3-ethylphenyl)amino]carbonyl}amino)phenyl]-1H-indole-1-carboxamide] | – | –

Further lines, the compound ahead of its results:

Row | SMILES | IC50 [1] [nM] | IC50 [2] [nM] | IC50 [3, 4] [nM] | IC50 ([3]; VEGF165 stimulation (10 ng/mL), 30 minutes pre-incubation, Fluo-4 calcium, read-out: Receptor VEGFR2 IC50) [nM]
9 | Cc1ccc(F)c(C(=O)Nc2csc(-c3cc4ccccc4n3C(N)=O)c2)c1 [Example 33, 2-{4-[(2-fluoro-5-methylbenzoyl)amino]-2-thienyl}-1H-indole-1-carboxamide] | > 10000 | 3650 | – | –
10 | COC(=O)c1ccc2cc(-c3ccc(NC(=O)Nc4cccc(C)c4)cc3)n(C(N)=O)c2c1 [Example 2, methyl 1-(aminocarbonyl)-2-[4-({[(3-methylphenyl)amino]carbonyl}amino)phenyl]-1H-indole-6-carboxylate] | 10 | 5 | 11 | –
11 | Cc1cccc(NC(=O)Nc2ccc(-c3cc4ccccc4n3C(N)=O)cc2)c1 [Example 3, 2-[4-({[(3-methylphenyl)amino]carbonyl}amino)phenyl]-1H-indole-1-carboxamide] | 14 | 6 | 17 | –
12 | Cc1ccc(F)c(NC(=O)Nc2ccc(-c3cc4ccccc4n3C(N)=O)cc2)c1 [Example 7, 2-[4-({[(2-fluoro-5-methylphenyl)amino]carbonyl}amino)phenyl]-1H-indole-1-carboxamide] | 20 | 9 | 41 | –
13 | COc1cccc(NC(=O)Nc2ccc(-c3cc4ccccc4n3C(N)=O)cc2)c1 [Example 8, 2-[4-({[(3-methoxyphenyl)amino]carbonyl}amino)phenyl]-1H-indole-1-carboxamide] | 12 | 11 | 45 | –
14 | CCc1cccc(NC(=O)Nc2csc(-c3cc4ccccc4n3C(N)=O)c2)c1 [Example 28, 2-[4-({[(3-ethylphenyl)amino]carbonyl}amino)-2-thienyl]-1H-indole-1-carboxamide] | 264 | 60 | – | –
15 | CCc1cccc(NC(=O)Nc2ccc(-c3cc4ccccc4n3C(N)=O)cc2)c1 [Example 1, 2-[4-({[(3-ethylphenyl)amino]carbonyl}amino)phenyl]-1H-indole-1-carboxamide] | – | – | 13 | –
16 | NC(=O)n1c(-c2ccc(NC(=O)Nc3ccc(F)c(Cl)c3)cc2)cc2ccccc21 [Example 5, 2-[4-({[(3-chloro-4-fluorophenyl)amino]carbonyl}amino)phenyl]-1H-indole-1-carboxamide] | 19 | – | – | –
17 | Cc1ccc(NC(=O)Nc2ccc(-c3cc4ccccc4n3C(N)=O)cc2)cc1 [Example 11, 2-[4-({[(4-methylphenyl)amino]carbonyl}amino)phenyl]-1H-indole-1-carboxamide] | 11 | 23 | – | > 10000
18 | NC(=O)n1c(-c2ccc(NC(=O)Nc3cccc(C(F)(F)F)c3)cc2)cc2ccccc21 [Example 6, 2-{4-[({[3-(trifluoromethyl)phenyl]amino}carbonyl)amino]phenyl}-1H-indole-1-carboxamide] | 28 | 9 | 58 | –
19 | Cc1cccc(NC(=O)Nc2csc(-c3cc4ccccc4n3C(N)=O)c2)c1 [Example 26, 2-[4-({[(3-methylphenyl)amino]carbonyl}amino)-2-thienyl]-1H-indole-1-carboxamide] | 1140 | – | – | –
20 | NC(=O)n1c(-c2cc(NC(=O)Nc3ccc(F)c(Cl)c3)cs2)cc2ccccc21 [Example 30, 2-[4-({[(3-chloro-4-fluorophenyl)amino]carbonyl}amino)-2-thienyl]-1H-indole-1-carboxamide] | > 10000 | 83 | – | –
21 | Cc1ccoc1C(=O)Nc1csc(-c2cc3ccccc3n2C(N)=O)c1 [Example 32, 2-{4-[(3-methyl-2-furoyl)amino]-2-thienyl}-1H-indole-1-carboxamide] | > 10000 | 3180 | – | –
22 | NC(=O)n1c(-c2cc(NC(=O)Nc3cccc(C(F)(F)F)c3)cs2)cc2ccccc21 [Example 27, 2-{4-[({[3-(trifluoromethyl)phenyl]amino}carbonyl)amino]-2-thienyl}-1H-indole-1-carboxamide] | 152 | – | – | –
23 | NC(=O)n1c(-c2ccc(NC(=O)Nc3ccccc3)cc2)cc2ccccc21 [Example 10, 2-{4-[(anilinocarbonyl)amino]phenyl}-1H-indole-1-carboxamide] | 23 | 22 | 150 | –
24 | Cc1ccccc1NC(=O)Nc1ccc(-c2cc3ccccc3n2C(N)=O)cc1 [Example 12, 2-[4-({[(2-methylphenyl)amino]carbonyl}amino)phenyl]-1H-indole-1-carboxamide] | 118 | 174 | – | –
25 | NC(=O)n1c(-c2cc(NC(=O)Nc3ccc(Cl)c(C(F)(F)F)c3)cs2)cc2ccccc21 [Example 31, 2-{4-[({[4-chloro-3-(trifluoromethyl)phenyl]amino}carbonyl)amino]-2-thienyl}-1H-indole-1-carboxamide] | 151 | – | – | –
